{"source": "patent US20120196935A1", "about": "“METHODS FOR DETECTING AUTODIGESTION” (THE REGENTS OF THE UNIVERSITY OF CALIFORNIA, priority 2009, published 2012)", "tested_on": "experimental rats in hemorrhagic shock", "assay": "hemorrhagic shock in rats with blockage of digestive enzymes in the lumen of the intestine", "format": "in vivo", "details": "hemorrhagic shock (two hour reduction of blood pressure), inhibitor infused into the lumen of the intestine", "source_text": "Fetid organic material was released from animals subject to autodigestion by pancreatic enzymes, but not from those that were not subject to autodigestion. Non-surviving animals uniformly released fetid organic material, while survivors produced dramatically lower levels. For example, animals with blockage of digestive enzymes in the lumen of the intestine (by infusion of pancreatic serine protease inhibitors, such as cyclokapron) in hemorrhagic shock had lower levels of substances such as putrescine, cadaverine, methional, and transthyretin.", "data": [{"smiles": "NC[C@H]1CC[C@H](C(=O)O)CC1", "note": "[cyclokapron]", "values": [{"measurement": "levels of substances such as putrescine, cadaverine, methional, and transthyretin", "result": "lower levels"}]}]}
